“Also recorded” adds a separate entry of the source.
Assays:
[1] = test system: U-937 cells; assay: High-throughput cell death assay on library members (MTS/PMS); type: cell-based, human; conditions: library members at 100 μM, 24 hours
Description: A three-tiered system was devised to identify compounds that selectively induce apoptosis in cancer cells. First, all compounds were screened at 100 μM in a high-throughput manner for their ability to induce death in two cancer cell lines, HL-60 (leukemia) and U-937 (lymphoma).
Test compounds were transferred into the wells using a 96-pin transfer apparatus (V & P Scientific, San Diego Calif.) that transfers 0.2 μL of compound. The compounds were made up as 50 mM stock solutions in 100% EtOH, so one transfer gave a final concentration of 100 μM. Controls were performed in which only EtOH (containing no compound) was pin-transferred into wells containing cells. The cells were incubated with the compounds for 24 hours, and then cell death was quantitated.

[2] = in vitro; type: cell-based, human; conditions: human
[3] = test system: caspase-3 like protease activity in U-937 cells; assay: Caspase-3 activity assay (Ac-DEVD-pNA cleavage by cell lysates); type: cell-based, human; conditions: 100 μM
Description: Caspase-3 Activity Assay: The amount of caspase-3 like protease activity was determined by the amount of Ac-DEVD-pNA (N-acetyl-Asp-Glu-Val-Asp p-nitroanilide) cleaved per minute by cell lysates. To accomplish this, 100 μM of 13-D was added to cell culture flasks containing 50 mL of 10×10^6 U-937 cells/mL at 72, 48, 36, 24, 12 and 0 hours before harvesting. Cells were harvested by centrifugation, counted and diluted with RPMI 1640 media to a concentration of 4×10^6 cells/mL. 100 μL of the diluted cells were added to the wells of a 96-well plate in quadruplicate. The plate was then spun at 1000×g for 5 minutes to pellet the cells. […] The slope of the linear portion for each compound was then determined and any cleavage of the substrate in the control wells was subtracted out. The amount of Ac-DEVD-pNA cleaved in pmol/min was then calculated and plotted.
Apoptotic assays. […] Thus early stage (mitochondrial membrane depolarization), middle stage (caspase-3 like activation, PARP-1 cleavage) and late stage (chromatin condensation, phosphatidylserine exposure, membrane blebbing) biochemical events were monitored. […] Several dyes, including JC-9, have been developed that provide a sensitive readout on this process. […] The caspase-3-like activity of the cells can be monitored with peptidic substrates. […]

[4] = test system: U-937 cells; assay: Analysis of mitochondria depolarization by flow cytometry (JC-9 dye); type: cell-based, human
Description: Further experiments assessed whether the observed death from 12-D, 13-D, and 15-D was due to apoptosis or necrosis.
Analysis of Mitochondria Depolarization by Flow Cytometry: The depolarization of the mitochondrial membrane was measured by the fluorescence emitted by the JC-9 dye (Molecular Probes, Eugene Oreg.). 100 μM of 13-D or 10 μM etoposide in 1 μL of EtOH were added to cell culture flasks containing 50 mL of 10×10^6 U-937 cells/mL. […] 10 μg of the JC-9 dye was added to 1×10^6 cells in 1 mL and incubated at room temperature for 10 min. Cells were washed twice with PBS and resuspended in a final volume of 500 μL PBS. The fluorescence intensity of each cell was determined by flow cytometry at 525 nm (channel 1 green) and 675 nm (channel 4 red). 50,000 cells were analyzed in each experiment. The data was then analyzed using Summit Software (Cytomation, Fort Collins Colo.) and the number of cells within the upper left region, viable cells, was determined.
Apoptotic assays. To determine whether the observed death was due to apoptosis or necrosis, several apoptotic hallmarks were examined. Thus early stage (mitochondrial membrane depolarization), middle stage (caspase-3 like activation, PARP-1 cleavage) and late stage (chromatin condensation, phosphatidylserine exposure, membrane blebbing) biochemical events were monitored. The depolarization of mitochondrial membranes facilitates the release of pro-apoptotic proteins such as cytochrome c and AIF (apoptosis inducing factor) from the mitochondria into the cytosol. Several dyes, including JC-9, have been developed that provide a sensitive readout on this process. […] The release of pro-apoptotic stimuli from the mitochondria initiates a cascade of events that ultimately results in the activation of the “executioner” caspases, typically caspase-3 and caspase-7. The caspase-3-like activity of the cells can be monitored with peptidic substrates. […] PARP-1 cleavage. A final event in apoptosis is the exposure of phosphatidylserine on the outer leaflet of the cell membrane; this event allows for recognition of apoptotic cells by phagocytes, ultimately leading to the engulfment of the apoptotic cell and the recycling of the various cellular components.

[5] = test system: T cells; type: cell-based, mouse
From the text: Erythrocytes were selectively lysed and the T cells were highly enriched by using a mouse erythrocyte lysing kit and a mouse T cell enrichment column (R & D Systems, Minneapolis Minn.). FITC labeled anti-TCR antibodies were used to determine the purity of T cells in pre- and post-column samples. The T cells were enriched from approximately 35% to 90% of the total cell population (see FIG. 6A, 6B below). […] These cells were either stimulated to grow (by addition of ConA to a concentration of 2.5 μg/mL) or left untreated. […] After the 72 hours of incubation, 200 μL of cells were diluted in 300 μL PBS. Propidium iodide was then added to a concentration of 1 μg/mL. Cells were then incubated at room temperature for 5 minutes and analyzed by flow cytometry. The fluorescene intensity of each cell was determined at 620 nm (channel 3) and at least 50,000 cells were analyzed for each experiment (FIG. 7A, 7B, below). The data was then analyzed using Summit Software (Cytomation, Fort Collins Colo.) and the number of viable cells was determined. Non-concanavalin A stimulated T cells were also treated with 13-D, and viable cells in these samples were determined by PI staining (as above).
FIG. 7A illustrates flow cytometry data from Concanavalin A stimulated T cells; region R1 indicates 86.4% viable cells. […]

[6] = test system: U-937 cells; assay: Microscopy of treated cells; type: cell-based, human; conditions: 100 μM
Description: Compound 13-D was added to make a final concentration of 100 μM. Pictures of the cells were taken at various times using a Carl Zeiss confocal microscope (Carl Zeiss, Thornwood N.Y.). Picture at 100×; FIG. 9B. Picture at 100×; FIG. 10A. Picture at 400×; FIG. 10B. Picture at 400×; FIG. 10C. Picture at 400×; and FIG. 11. Picture at 200×.

[7] = test system: splenocytes; assay: Splenocyte toxicity assay (concanavalin A stimulated, MTS/PMS); conditions: 72 h
Description: For this experiment, the spleen from a euthanized mouse was harvested, and the splenocytes isolated.
Splenocyte Toxicity Assay: Splenocytes were isolated from the spleen of a 7-month old male C57Black/6 mouse and suspended in 1 mL RPMI 1640+10% FBS+2.5 μg/mL concanavalin A. These cells were counted and diluted so that 2.5×10^5 cells were seeded in to each well containing a total of 200 μL of media. […] 1 μL of EtOH was added to separate control wells. After 72 hours of incubation, 20 μL of the MTS/PMS CellTiter 96 Cell Proliferation Assay reagent (Promega, Madison Wis.) was added to each well. The plates were incubated at 37° C. for approximately two hours until the colored product formed and the absorbance was then measured at 490 nm in a Spectra Max Plus 384 plate reader (Molecular Devices, Sunnyvale Calif.).

[8] = test system: cell cycle; assay: Cell cycle analysis, DNA content by flow cytometry of propidium iodide stained cells; type: cell-based; conditions: position of cell cycle arrest
Description: Cell cycle analysis and NCl screen. The data in FIG. 21 and Table 11 show potential structure-activity trends. Several amides derived from the triphenylacetic acid (TPA) and triphenylpropionic acid (TPP) building blocks induced a high degree of cell death in this assay. Experiments were conducted to determine the position on the cell cycle at which these compounds arrest cell growth. This is typically determined by assessing the DNA content as measured flow cytometry analysis of cells stained by propidium iodide. Flow cytometry data is presented in FIG. 22, along with control data. […] One of the active apoptotic inducers identified from this combinatorial library that was not derived from the TPA or TPP building blocks (x) also arrests cell growth in the G2/M phase as indicated by the data in FIG. 22B. However, compounds containing the triphenylacetic acid and triphenylpropionic acid building blocks all arrest cell growth in the G1 phase (FIG. 22C and FIG. 22D). Here compounds x and y correspond to compounds Z2 and Z3.

SMILES | Induction of death in U-937 cells (percentages of cell death) [1] [%] | IC50 at 72 h [2] [µM] | caspase-3 activity [3] | observed death due to apoptosis or necrosis [4] | cell population in which apoptosis is induced (JC-9 staining) ([4]; 100 μM, 72 h) | viable cells, treated versus non-treated control cells [5] | microscopy, evidence of apoptosis [6] | toxicity towards actively dividing splenocytes ([7]; 500 μM) | IC50 ([7]; Mus musculus, Splenocyte, read-out: IC50 for non-cancerous splenocytes) [µM] | cell cycle arrest [8]
COc1cc(/C=C/C(=O)NC[C@@H](O)c2ccc(O)cc2)ccc1O [Compound 13-D, N-[2-(S)-Hydroxy-2-(4-hydroxy-phenyl)-ethyl]-3-(4-hydroxy-3-methoxy-phenyl)-acrylamide] | 87 | 44 | strong induction of caspase-3 activity | induced apoptosis | over 70% | no difference was observed | membrane blebbing and cell shrinkage | virtually no death; also recorded: virtually no toxicity | > 1000 | –
CC(=O)O[C@H]1C(=O)[C@@]2(C)[C@H]([C@H](OC(=O)c3ccccc3)[C@]3(O)C[C@H](OC(=O)[C@H](O)[C@@H](NC(=O)c4ccccc4)c4ccccc4)C(C)=C1C3(C)C)[C@]1(OC(C)=O)CO[C@@H]1C[C@@H]2O [Taxol] | – | – | – | – | – | – | – | – | – | mitotic (M) phase arrest

Source: patent US7632972B2, “Compounds and methods for treatment of cancer and modulation of programmed cell death for melanoma and other cancer cells” (The Board of Trustees of the University of Illionis, priority 2003, dated 2009)
